US20250353844A1, “TETRAHYDROPYRIDO 3,4-D PYRIMIDINE DERIVATIVES AS KRAS INHIBITORS” (Bristol-Myers Squibb Company, priority 2022, published 2025)

Biological target: Recombinant GMPPNP-loaded KRAS G12C (KRAS-G12C(ON)) / GST-RAF1 RBD (Homo sapiens, UniProt P01116, G12C)
Assay: KRAS G12C RAF Disruption Assay (HTRF)
Assay type: biochemical
Details: GMPPNP-loaded KRAS G12C 5 nM, compound 20 min at room temperature, GST-RAF1 RBD 9 nM, HTRF signal; read-out: KRASG12C RAF Disruption Assay (IC50)
Experimental: Recombinant GST-RAF1 RBD (9 nM) was added, and the reaction mixture was incubated for 20 minutes. SA-Tb (0.25 nM) was added, and the reaction mixture was incubated for 3 hours. HTRF signal was measured (PerkinElmer Envision), the signal ratio (λem 520/λem 495) was calculated, and IC50 values were calculated from the dose-response curve.

Recombinant GMPPNP-loaded KRAS G12C (KRAS-G12C(ON)) / GST-RAF1 RBD, sequence (P01116 1-188 isoform P01116-2 G12C): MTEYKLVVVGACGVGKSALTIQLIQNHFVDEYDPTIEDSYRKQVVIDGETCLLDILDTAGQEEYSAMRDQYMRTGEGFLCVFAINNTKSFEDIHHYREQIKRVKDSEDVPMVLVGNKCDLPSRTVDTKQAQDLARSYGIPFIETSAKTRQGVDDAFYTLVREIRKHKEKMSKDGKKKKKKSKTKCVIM

SMILES: CN1CCC[C@H]1COc1nc2c(c(N3CCN(C(=O)/C(F)=C/c4cn(C)nn4)[C@@H](CC#N)C3)n1)CCN(c1cccc3cccc(Cl)c13)C2 [Example 18]
- IC50: 92600 nM

SMILES: Cc1ccnc(/C=C(\F)C(=O)N2CCN(c3nc(OC[C@@H]4CCCN4C)nc4c3CCN(c3cccc5cccc(Cl)c35)C4)C[C@@H]2CC#N)c1 [Example 12, 2-((S)-4-(7-(8-chloronaphthalen-1-yl)-2-(((S)-1-methylpyrrolidin-2-yl)methoxy)-5,6,7,8-tetrahydropyrido[3,4-d]pyrimidin-4-yl)-1-((Z)-2-fluoro-3-(4-methylpyridin-2-yl)acryloyl)piperazin-2-yl)acetonitrile]
- IC50: 129 nM

SMILES: N#CC[C@H]1CN(c2nc(OC[C@@]34CCCN3C[C@H](F)C4)nc3c2CCN(c2cccc4cccc(Cl)c24)C3)CCN1C(=O)/C(F)=C/c1ccccn1 [Example 7, 2-((S)-4-(7-(8-chloronaphthalen-1-yl)-2 (((2R,7aS)-2-fluorotetrahydro-1H-pyrrolizin-7a(5H)-yl)methoxy)-5,6,7,8-tetrahydropyrido[3,4-d]pyrimidin-4-yl)-1-((Z)-2-fluoro-3-(pyridin-2-yl)acryloyl)piperazin-2-yl)acetonitrile]
- IC50: 74 nM

SMILES: C[C@H]1CN(C(=O)/C(F)=C/c2nccs2)CCN1c1nc(OC[C@@H]2CCCN2C)nc2c1CCN(c1cccc3cccc(Cl)c13)C2 [Example 15, (Z)-1-((S)-4-(7-(8-chloronaphthalen-1-yl)-2-(((S)-1-methylpyrrolidin-2-yl)methoxy)-5,6,7,8-tetrahydropyrido[3,4-d]pyrimidin-4-yl)-3-methylpiperazin-1-yl)-2-fluoro-3-(thiazol-2-yl)prop-2-en-1-one]
- IC50: 7500 nM

SMILES: Cc1cccnc1/C=C(\F)C(=O)N1CCN(c2nc(OC[C@@H]3CCCN3C)nc3c2CCN(c2cccc4cccc(Cl)c24)C3)C[C@@H]1CC#N [Example 14, 2-((S)-4-(7-(8-chloronaphthalen-1-yl)-2-(((S)-1-methylpyrrolidin-2-yl)methoxy)-5,6,7,8-tetrahydropyrido[3,4-d]pyrimidin-4-yl)-1-((Z)-2-fluoro-3-(3-methylpyridin-2-yl)acryloyl)piperazin-2-yl)acetonitrile]
- IC50: 778 nM

SMILES: CN1CCC[C@H]1COc1nc2c(c(N3CCN(C(=O)/C(F)=C/c4ncco4)[C@@H](CC#N)C3)n1)CCN(c1cccc3cccc(Cl)c13)C2 [Example 6, 2-((S)-4-(7-(8-chloronaphthalen-1-yl)-2-(((S)-1-methylpyrrolidin-2-yl)methoxy)-5,6,7,8-tetrahydropyrido[3,4-d]pyrimidin-4-yl)-1-((Z)-2-fluoro-3-(oxazol-2-yl)acryloyl)piperazin-2-yl)acetonitrile]
- IC50: 89 nM

SMILES: Cc1ccc(/C=C(\F)C(=O)N2CCN(c3nc(OC[C@@H]4CCCN4C)nc4c3CCN(c3cccc5cccc(Cl)c35)C4)C[C@@H]2CC#N)nc1 [Example 13, 2-((S)-4-(7-(8-chloronaphthalen-1-yl)-2-(((S)-1-methylpyrrolidin-2-yl)methoxy)-5,6,7,8-tetrahydropyrido[3,4-d]pyrimidin-4-yl)-1-((Z)-2-fluoro-3-(5-methylpyridin-2-yl)acryloyl)piperazin-2-yl)acetonitrile]
- IC50: 192 nM

SMILES: CN1CCC[C@H]1COc1nc2c(c(N3CCN(C(=O)/C(F)=C/c4nccn4C)[C@@H](CC#N)C3)n1)CCN(c1cccc3cccc(Cl)c13)C2 [Example 10, 2-((S)-4-(7-(8-chloronaphthalen-1-yl)-2-(((S)-1-methylpyrrolidin-2-yl)methoxy)-5,6,7,8-tetrahydropyrido[3,4-d]pyrimidin-4-yl)-1-((Z)-2-fluoro-3-(1-methyl-1H-imidazol-2-yl)acryloyl)piperazin-2-yl)acetonitrile]
- IC50: 24000 nM

SMILES: CN1CCC[C@H]1COc1nc2c(c(N3CCN(C(=O)C(F)=Cc4ccns4)[C@@H](CC#N)C3)n1)CCN(c1cccc3cccc(Cl)c13)C2 (racemic) [Example 9, 2-((S)-4-(7-(8-chloronaphthalen-1-yl)-2-(((S)-1-methylpyrrolidin-2-yl)methoxy)-5,6,7,8-tetrahydropyrido[3,4-d]pyrimidin-4-yl)-1-(2-fluoro-3-(isothiazol-5-yl)acryloyl)piperazin-2-yl)acetonitrile]
- IC50: 57000 nM

SMILES: CN1CCC[C@H]1COc1nc2c(c(N3CCN(C(=O)/C(F)=C/c4cccnc4)[C@@H](CC#N)C3)n1)CCN(c1cccc3cccc(Cl)c13)C2 [Example 2, 2-((S)-4-(7-(8-chloronaphthalen-1-yl)-2-(((S)-1-methylpyrrolidin-2-yl)methoxy)-5,6,7,8-tetrahydropyrido[3,4-d]pyrimidin-4-yl)-1-((Z)-2-fluoro-3-(pyridin-3-yl)acryloyl)piperazin-2-yl)acetonitrile]
- IC50: 40300 nM

SMILES: CN1CCC[C@H]1COc1nc2c(c(N3CCN(C(=O)/C(F)=C/c4ccno4)[C@@H](CC#N)C3)n1)CCN(c1cccc3cccc(Cl)c13)C2 [Example 17]
- IC50: 10500 nM

SMILES: CN1CCC[C@H]1COc1nc2c(c(N3CCN(C(=O)/C(F)=C/c4ccon4)[C@@H](CC#N)C3)n1)CCN(c1cccc3cccc(Cl)c13)C2 [Example 16, 2-((S)-4-(7-(8-chloronaphthalen-1-yl)-2-(((S)-1-methylpyrrolidin-2-yl)methoxy)-5,6,7,8-tetrahydropyrido[3,4-d]pyrimidin-4-yl)-1-((Z)-2-fluoro-3-(isoxazol-3-yl)acryloyl)piperazin-2-yl)acetonitrile]
- IC50: 63700 nM

SMILES: Cc1cccc(/C=C(\F)C(=O)N2CCN(c3nc(OC[C@@H]4CCCN4C)nc4c3CCN(c3cccc5cccc(Cl)c35)C4)C[C@@H]2CC#N)n1 [Example 11, 2-((S)-4-(7-(8-chloronaphthalen-1-yl)-2-(((S)-1-methylpyrrolidin-2-yl)methoxy)-5,6,7,8-tetrahydropyrido[3,4-d]pyrimidin-4-yl)-1-((Z)-2-fluoro-3-(6-methylpyridin-2-yl)acryloyl)piperazin-2-yl)acetonitrile]
- IC50: 144 nM

SMILES: CN1CCC[C@H]1COc1nc2c(c(N3CCN(C(=O)/C(F)=C/c4ncccn4)[C@@H](CC#N)C3)n1)CCN(c1cccc3cccc(Cl)c13)C2 [Example 4, 2-((S)-4-(7-(8-chloronaphthalen-1-yl)-2-(((S)-1-methylpyrrolidin-2-yl)methoxy)-5,6,7,8-tetrahydropyrido[3,4-d]pyrimidin-4-yl)-1-((Z)-2-fluoro-3-(pyrimidin-2-yl)acryloyl)piperazin-2-yl)acetonitrile]
- IC50: 103 nM

SMILES: CN1CCC[C@H]1COc1nc2c(c(N3CCN(C(=O)/C(F)=C/c4ccncc4)[C@@H](CC#N)C3)n1)CCN(c1cccc3cccc(Cl)c13)C2 [Example 3, 2-((S)-4-(7-(8-chloronaphthalen-1-yl)-2-(((S)-1-methylpyrrolidin-2-yl)methoxy)-5,6,7,8-tetrahydropyrido[3,4-d]pyrimidin-4-yl)-1-((Z)-2-fluoro-3-(pyridin-4-yl)acryloyl)piperazin-2-yl)acetonitrile]
- IC50: 329 nM

SMILES: N#CC[C@H]1CN(c2nc(OC[C@@]34CCCN3C[C@H](F)C4)nc3c2CCN(c2cccc4cccc(Cl)c24)C3)CCN1C(=O)/C(F)=C/c1nccs1 [Example 8, 2-((S)-4-(7-(8-chloronaphthalen-1-yl)-2 (((2R,7aS)-2-fluorotetrahydro-1H-pyrrolizin-7a(5H)-yl)methoxy)-5,6,7,8-tetrahydropyrido[3,4-d]pyrimidin-4-yl)-1-((Z)-2-fluoro-3-(thiazol-2-yl)acryloyl)piperazin-2-yl)acetonitrile]
- IC50: 55 nM
